According to patent publication EP3118613B1, “ELECTRIC COMPONENT WITH ORGANIC PART” (ACREO SWEDISH ICT AB, priority 2015, dated 2017):
Entries after “also recorded” stand apart in the source; their conditions may differ.

Columns and labels:
[1] = Cyclic voltammetry, onset potential of polymerization; type: physicochemical; conditions: 1 mg/ml in 0.01 M NaCl, ITO working electrode, Ag/AgCl reference, 50 mV/s
Description: In order to define the on-set potential of the polymerization of the trimer a three electrode setup was used. The working electrode is an ITO coated glass, the counter electrode is a Platinum sheet and the reference electrode is an Ag/AgCl saturated electrode. The electrolyte was 1mg/ml of compound 1 in 0.01M NaCl. The active area of the ITO was 21mm x 8mm. A cyclic voltametry was performed in order to define the onset potential. The potential was applied between the working and the reference electrode while the current was measured between the working and the counter electrode. The potential was scanned from +0.5V to -0.5V, starting from 0V with a scan rate of 50mV/s. During the first scan current increases at around +0.3V defining the onset potential of the polymerization were observed. The polymer is deposited on the active area of the ITO coated glass.
In order to define the on-set potential of the polymerization of the trimer we used a three electrode setup. The working electrode is an ITO coated glass, the counter electrode is a Platinum sheet and the reference electrode is a Ag/AgCl saturated electrode. The electrolyte was 1 mg/ml of compound 1 in 0.01 M NaCl. The active area of the ITO was 21 mm x 8 mm. […] The potential was applied between the working and the reference electrode while the current was measured between the working and the counter electrode. […]

[2] = Conductivity of ETE-S polymerized in air; type: physicochemical
Description: The conductivity of ETE-S based wires was measured using two Au probes applied into individual xylem wires along the stem (Fig. 38) and found to be equal to 7.25 +- 3.38 S/cm (n=17). […] The high conductivity was retained for cm scale wires showing that good interconnectivity is achieved along the xylem wires. […] The conductivity of 10mg/ml solution is 10^-5 S/cm while for 50mg/ml is on the order of 10^-3S/CM. In the plants we typically administrate 5ml solution of 1mg/ml concentration. An estimation of the total volume of the xylem tubing in a rose cutting of 15cm is 0.15ml taking into account an average diameter of xylem to be 20um. For this volume and since all the solution is taken up form the plant we end up with concentrations of the ETE-S molecule in the order of 30mg/ml. From microscopy images we see that approximately only 10% of the xylem is filled, while the majority of the rest is coated with the material and for that volume we have concentrations up to 300mg/ml. This high concentration in the plant allows the material to organize and polymerize in a way that creates highly conducting wires.

[3] = tested on: young bean plant; assay: Immersion of bean plant roots or stem in compound 1 solution, plant survival and growth; type: in vivo; conditions: roots or stem immersed in 1 mg/mL aqueous solution; replanted in gel
Description: Figure 16A-E illustrates another experiment, with references to the alphabetical parts of figure in parenthesis. A young bean plant having a plurality of roots was used as a test specimen. In (A) the roots of the young bean plant were planted in a plastic container having Seedhru® gel as a soil substitute.. Two of the roots of the bean plant were immersed in a vial 1600 (B) containing aqueous solution of compound 1 (1 mg/mL). […] As soon as or shortly after the two roots were immersed the color of the compound 1 solution shifted from white to pink (D) and then back to white again. The reason of the color shift is still being investigated. […] After 24 hours one of the roots was removed from the compound 1 solution and can be seen in (E) and in figure 17. The other root was left immersed in the compound 1 solution for 24 more hours (total 48hours). After 48 hours the second root was cut of the bean plant and can be seen in figure 18.. Note that the part of the root which was immersed in compound 1 is now coated with polymerized compound 1 as indicated by the darker color. […]

[4] = Two-probe conductivity measurement of conducting wires in rose xylem; type: physicochemical, Rosa floribunda; conditions: xylem wires in rose stem, two Au probes
Description: We chose to use cuttings of Rosa floribunda (garden rose) as our model plant system. The lower part of a rose stem was cut and the fresh cross section was immersed in an aqueous PEDOT-S:H solution for 24-48 h (Fig. 7A), during which time the PEDOT-S:H solution was taken up into the xylem vascular channel and transported apically. The rose was taken from the solution and rinsed in water. The outer bark, cortex and phloem of the bottom part of the stem were then gently peeled off, exposing dark continuous lines along individual 20-100 µm wide xylem channels (Fig. 7B-D). These "wires" extended more than 5 cm along the stem. […] The conductivity of PEDOT-S:H wires was measured using two Au probes applied into individual PEDOT-S:H xylem wires along the stem (Fig. 7D). From the linear fit of resistance versus distance between the contacts, we found electrical conductivity reading 0.13 S/cm with contact resistance ∼10 kΩ (Fig. 7E). […]
Figure 29A is an external views of a plant part, in this case the steam where the epidermis has been peeled off, also showing two gold plated microelectrodes 2300 used to contact and penetrate a surface of the stem in order to reach the xylem channel. […] This is the currently highest measured electronic conductivity in a plant. […]

[5] = Xylem supercapacitor, specific capacitance of xylem wire electrodes; type: physicochemical, rose; conditions: from slope of capacitance per area vs length of xylem wire
Source text: Plant's anatomy upon functionalization with the conducting material provides an ideal architecture for developing supercapacitors in vivo. The long-range conducting xylem wires are parallel and electronically isolated to each other while are surrounded with cellular domains and extracellular space rich in electrolyte. Therefore we explored the charge storage capacity of the xylem wires. Two parallel xylem wires served as the electrodes (capacitor plates) and the plant tissue in between them the spacer. Two Au probes defined the electrodes contacts. In the schematic of Fig. 36.a we show the general structure and the wiring of a supercapacitor along with the optical micrograph of the corresponding supercapacitor in the plant Fig. 36.b.
From the slope of the discharging curve we calculate the capacitance of the device equal to 1.3 10^-4 F The capacitive behavior of the material is indicated and by the square shaped voltamogramm Fig. 43 in the potential range of -0.5V - 0.5V. In order to extract the specific capacitance of the xylem electrodes we measure devices of various dimensions. Xylem wires have typically diameter of 30-50um and lengths in the cm scale. In Fig. 36.d. we show the capacitance per area (diameter of xylem wire) vs the length. From the slope we calculated the specific capacitance and found it equal to 20F/cm3, a value in the typical range for conducting polymers. […]

onset potential of the polymerization [1]	conductivity ([2]; 10mg/ml solution)	conductivity ([2]; 50mg/ml solution)	electrical conductivity [4]	specific capacitance [5]	Compound	growth or survival of the plant [3]
1.1 V	–	–	–	–	c1scc2c1OCCO2 [EDOT]	–
–	10^-5 S/cm	~10^-3 S/CM	approximately 1.5 S/cm	20 F/cm3	exo-EDOT-Thiophene-EDOT-alkoxylfonate [compound 1]	survives for at least two weeks; also recorded: showed further growth
